Read-outs that look alike come from different tables or passages of the source. Numbered stars: 1 amine (or outer) side, 2 acyl side, 3 side chain; on linkers, the order of the positions; unused ones are H or OH. Side chains are listed from the residue outwards. Peptide text beside a SMILES is read from it. * marks the point of attachment. Decanoyl(10-(4-HOOC-PhO)) = O=C(O)c1ccc(OCCCCCCCCCC(=O)*)cc1; Lactoyl(3-(imidazol-4-yl)) = O=C([C@@H](O)Cc1c[nH]cn1)*; γGlu = O=C(O)[C@H](CCC(=O)[*:2])N[*:1]; AEEA = NCCOCCOCC(=O)O
What was measured:
human GLP-1 receptor = target: T1, human GLP-1 receptor (Homo sapiens, UniProt P43220); experiment: In vitro potency, AlphaScreen cAMP assay on membranes; format: biochemical; settings: cAMP formation, membranes of BHK467-12A cells
T1 construct: expressed in transfected cells; host or cells: BHK cells, clone FCW467-12A (parent line BHKTS13), membranes
Description: The purpose of this example is to test the activity, or potency, in vitro of, for example, the GLP-1 parent drugs of the prodrugs of the invention.
Purified plasma membranes from a stable transfected cell line, BHK467-12A (tk-ts13), expressing the human GLP-1 receptor were stimulated with the GLP-1 drug in question, and the potency of cAMP production was measured using the AlphaScreen™ cAMP Assay Kit from Perkin Elmer Life Sciences. The basic principle of The AlphaScreen Assay is a competition between endogenous cAMP and exogenously added biotin-cAMP. The capture of cAMP is achieved by using a specific antibody conjugated to acceptor beads.
A stable transfected cell line and a high expressing clone were selected for screening. The cells were grown at 5% CO2 in DMEM, 10% FCS, 1% Pen/Strep (Penicillin/Streptomycin) and preferably 0.5 (alternatively 1.0 mg/ml) of the selection marker G418.
Cells at approximate 80% confluence were washed twice with PBS and harvested with Versene (aqueous solution of the tetrasodium salt of ethylenediaminetetraacetic acid), centrifuged 5 min at 1000 rpm and the supernatant removed. The additional steps were all made on ice. The cell pellet was homogenised by the Ultrathurax for 20-30 s in 10 ml of Buffer 1 (20 mM Na-HEPES, 10 mM EDTA, pH=7.4), centrifuged 15 min at 20,000 rpm and the pellet resuspended in 10 ml of Buffer 2 (20 mM Na-HEPES, 0.1 mM EDTA, pH=7.4). The suspension was homogenised for 20-30 s and centrifuged 15 min at 20,000 rpm. Suspension in Buffer 2, homogenisation and centrifugation was repeated once and the membranes were resuspended in Buffer 2. The protein concentration was determined and the membranes stored at −80° C. until use.
The assay was performed in flat-bottom 96-well plates (Costar cat. no: 3693). The final volume per well was 50 μl.
AlphaScreen cAMP Assay Kit from Perkin Elmer Life Sciences (cat. No: 6760625M); containing Anti-cAMP Acceptor beads (10 U/μl), Streptavidin Donor beads (10 U/μl) and Biotinylated-cAMP (133 U/μl). […]

[1] = target: T2, Dipeptidyl peptidase-4 (DPP-IV) (Homo sapiens, UniProt P27487); experiment: Resistance to DPP-IV degradation; format: in vitro ADME; settings: for half-life: recombinant dipeptidyl peptidase-4 (DPP-IV), pH 7.4, incubation with DPP-IV, 37° C.; for In (concentration) of parent GLP-1 peptide drug: DPP-IV incubation 37° C.
T2 construct: purchased R&D Systems 1180-SE
Description: The purpose of this experiment is to determine the degradation by Dipeptidyl peptidase-4 (DPP-IV) of the parent drugs of the prodrugs of the invention.
The stability of the parent GLP-1 drug of Example B2.1 was tested as described below.
HEPES Buffer (50 mM HEPES Buffer with 0.005% Tween20, pH 7.4)
10 ml 1 M HEPES+100 μl 10% Tween20 adjusted to pH 7.4 and diluted with MilliQ water ad 200 mL
1.0 mM in HEPES buffer 0.1% BSA (Sigma cat. no. A9418)
1.0 mM in hepes buffer pH 7.4
DPP-IV was Recombinant Dipeptidyl Peptidase, R&D Systems, cat no. 1180-SE
50 μl of DPP-IV (0.2 mg/mL), 25 mM MES, 0.7 M NaCl, pH 5.0
Add 200 μl 25 mM TRIS pH 8.0 to Stock vial (DPP-IV concentration 40 μg/mL). Just before use: 210 μl (40 μg/ml) is added 210 μl 50 mM HEPES (DPP-IV concentration 20 μg/mL)
Minimum 30 min, 37° C. with 600 μl 0.1% OVAlbumin. Then left overnight at 4° C. and washed times with 50 mM HEPES.
Minimum 150 min with HEPES buffer at 37° C.
The reactions were terminated by moving 25 μl of the sample into 150 μl cooled 1% TFA in EtOH. Samples were collected in a v-shaped 96-well plate (polypropylene, Costar 3957), (Cat no. cci-3957)). Samples were sealed and kept on ice until analyses.
Samples were diluted 5 times in 50% acetonitrile (1% formic acid) (20 μL+80 μL) and analysed with UPLC-MS.
The amounts of parent GLP-1 drug and DPP-IV cleaved drug were measured from the total ion counts and T½ was determined from a linear fit to the curve of ln (% parent GLP-1 drug) (Y) as a function of time (t), as follows: Y(t)=÷αt+k Math 3 T½=ln 2/α Math 4 T½ (÷BSA): 3466 min T½ (+0.001% BSA): 2311 min

T2 sequence (P27487 29-766 limits assumed): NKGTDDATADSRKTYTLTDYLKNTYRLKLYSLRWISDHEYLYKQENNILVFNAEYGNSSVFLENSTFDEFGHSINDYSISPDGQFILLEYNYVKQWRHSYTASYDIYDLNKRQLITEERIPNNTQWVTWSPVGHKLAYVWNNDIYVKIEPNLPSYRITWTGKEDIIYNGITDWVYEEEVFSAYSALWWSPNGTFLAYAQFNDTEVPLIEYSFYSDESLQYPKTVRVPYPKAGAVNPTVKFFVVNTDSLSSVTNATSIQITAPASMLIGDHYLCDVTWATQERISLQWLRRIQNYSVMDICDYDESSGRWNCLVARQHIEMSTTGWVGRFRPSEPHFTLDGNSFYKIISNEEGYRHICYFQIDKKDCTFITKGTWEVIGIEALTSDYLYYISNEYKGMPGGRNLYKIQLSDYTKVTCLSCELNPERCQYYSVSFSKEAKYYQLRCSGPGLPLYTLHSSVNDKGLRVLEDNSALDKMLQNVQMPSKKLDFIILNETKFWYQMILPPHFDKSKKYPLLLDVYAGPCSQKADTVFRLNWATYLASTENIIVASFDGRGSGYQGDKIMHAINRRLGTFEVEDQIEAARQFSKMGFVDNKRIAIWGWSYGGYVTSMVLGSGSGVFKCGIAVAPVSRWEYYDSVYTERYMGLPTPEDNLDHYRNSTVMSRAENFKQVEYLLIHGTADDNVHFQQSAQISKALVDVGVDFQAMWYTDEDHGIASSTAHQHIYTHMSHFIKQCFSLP
T1 sequence (P43220 24-463): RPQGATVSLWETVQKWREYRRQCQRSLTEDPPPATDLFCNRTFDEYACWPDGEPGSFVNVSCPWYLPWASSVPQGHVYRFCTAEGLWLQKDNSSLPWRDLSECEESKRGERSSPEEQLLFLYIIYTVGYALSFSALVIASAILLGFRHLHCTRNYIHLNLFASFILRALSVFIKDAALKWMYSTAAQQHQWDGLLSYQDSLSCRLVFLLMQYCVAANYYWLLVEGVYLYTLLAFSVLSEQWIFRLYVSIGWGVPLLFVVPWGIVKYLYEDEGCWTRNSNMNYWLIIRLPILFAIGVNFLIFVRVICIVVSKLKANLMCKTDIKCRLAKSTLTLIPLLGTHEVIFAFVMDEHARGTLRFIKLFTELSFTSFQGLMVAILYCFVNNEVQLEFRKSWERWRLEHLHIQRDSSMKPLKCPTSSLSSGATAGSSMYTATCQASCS

| SMILES | EC50 (human GLP-1 receptor) | half-life ([1]; +0.001% BSA, read-out: T½ (+0.001% BSA)) | half-life ([1]; without BSA, read-out: T½ (÷BSA)) | In (concentration) of parent GLP-1 peptide drug ([1]; with BSA, time 1.0 minutes) | In (concentration) of parent GLP-1 peptide drug ([1]; with BSA, time 32 minutes) | In (concentration) of parent GLP-1 peptide drug ([1]; with BSA, time 60 minutes) | In (concentration) of parent GLP-1 peptide drug ([1]; with BSA, time 120 minutes) | In (concentration) of parent GLP-1 peptide drug ([1]; with BSA, time 183 minutes) | In (concentration) of parent GLP-1 peptide drug ([1]; with BSA, time 1440 minutes) | In (concentration) of parent GLP-1 peptide drug ([1]; without BSA, time 1.0 minutes) | In (concentration) of parent GLP-1 peptide drug ([1]; without BSA, time 32 minutes) | In (concentration) of parent GLP-1 peptide drug ([1]; without BSA, time 60 minutes) | In (concentration) of parent GLP-1 peptide drug ([1]; without BSA, time 120 minutes) | In (concentration) of parent GLP-1 peptide drug ([1]; without BSA, time 183 minutes) | In (concentration) of parent GLP-1 peptide drug ([1]; without BSA, time 1440 minutes) |
| --- | --- | --- | --- | --- | --- | --- | --- | --- | --- | --- | --- | --- | --- | --- | --- |
| CC[C@H](C)[C@H](NC(=O)[C@H](Cc1ccccc1)NC(=O)[C@H](CCC(=O)O)NC(=O)[C@H](CCCCNC(=O)COCCOCCNC(=O)COCCOCCNC(=O)CC[C@H](NC(=O)CCCCCCCCCOc1ccc(C(=O)O)cc1)C(=O)O)NC(=O)[C@H](C)NC(=O)[C@H](C)NC(=O)[C@H](CCC(N)=O)NC(=O)[C@H](CCC(=O)O)NC(=O)[C@H](CCC(=O)O)NC(=O)[C@H](CC(C)C)NC(=O)[C@H](Cc1ccc(O)cc1)NC(=O)[C@H](CCCCNC(=O)COCCOCCNC(=O)COCCOCCNC(=O)CC[C@H](NC(=O)CCCCCCCCCOc1ccc(C(=O)O)cc1)C(=O)O)NC(=O)[C@H](CO)NC(=O)[C@@H](NC(=O)[C@H](CC(=O)O)NC(=O)[C@H](CO)NC(=O)[C@@H](NC(=O)[C@H](Cc1ccccc1)NC(=O)[C@@H](NC(=O)CNC(=O)[C@H](CCC(=O)O)NC(=O)[C@H](C)NC(=O)[C@@H](O)Cc1c[nH]cn1)[C@@H](C)O)[C@@H](C)O)C(C)C)C(=O)N[C@@H](C)C(=O)N[C@@H](Cc1c[nH]c2ccccc12)C(=O)N[C@@H](CC(C)C)C(=O)N[C@H](C(=O)N[C@@H](CCC(N)=O)C(=O)NCC(=O)N[C@@H](CCCNC(=N)N)C(=O)NCC(=O)O)C(C)C [Example B2.3] ({Lactoyl(3-(imidazol-4-yl))}-AEGTFTSDVSK([AEEA-AEEA-γGlu-Decanoyl(10-(4-HOOC-PhO))])YLEEQAAK([AEEA-AEEA-γGlu-Decanoyl(10-(4-HOOC-PhO))])EFIAWLVQGRG-OH; C-terminus assumed) | 1300 pM | – | – | – | – | – | – | – | – | – | – | – | – | – | – |
| CC[C@H](C)[C@H](NC(=O)[C@H](Cc1ccccc1)NC(=O)[C@H](CCC(=O)O)NC(=O)[C@H](CCCNC(=N)N)NC(=O)[C@@H](NC(=O)[C@H](C)NC(=O)[C@H](CCC(N)=O)NC(=O)[C@H](CCC(=O)O)NC(=O)[C@H](CCC(=O)O)NC(=O)[C@H](CC(C)C)NC(=O)[C@H](Cc1ccc(O)cc1)NC(=O)[C@H](CCCCNC(=O)COCCOCCNC(=O)COCCOCCNC(=O)CC[C@H](NC(=O)CCCCCCCCCOc1ccc(C(=O)O)cc1)C(=O)O)NC(=O)[C@H](CO)NC(=O)[C@@H](NC(=O)[C@H](CC(=O)O)NC(=O)[C@H](CO)NC(=O)[C@@H](NC(=O)[C@H](Cc1ccccc1)NC(=O)[C@@H](NC(=O)CNC(=O)[C@H](CCC(=O)O)NC(=O)[C@H](C)NC(=O)[C@@H](O)Cc1c[nH]cn1)[C@@H](C)O)[C@@H](C)O)C(C)C)C(C)C)C(=O)N[C@@H](C)C(=O)N[C@@H](CCCCNC(=O)COCCOCCNC(=O)COCCOCCNC(=O)CC[C@H](NC(=O)CCCCCCCCCOc1ccc(C(=O)O)cc1)C(=O)O)C(=O)N[C@@H](CC(C)C)C(=O)N[C@H](C(=O)N[C@@H](CCCNC(=N)N)C(=O)NCC(=O)N[C@@H](CCCNC(=N)N)C(=O)NCC(=O)O)C(C)C [Example B2.1] ({Lactoyl(3-(imidazol-4-yl))}-AEGTFTSDVSK([AEEA-AEEA-γGlu-Decanoyl(10-(4-HOOC-PhO))])YLEEQAVREFIAK([AEEA-AEEA-γGlu-Decanoyl(10-(4-HOOC-PhO))])LVRGRG-OH) | 100 pM | 38.5 h | 57.8 h | 4.61 | 4.61 | 4.58 | 4.40 | 4.58 | 4.47 | 4.61 | 4.59 | 4.63 | 4.50 | 4.64 | 4.45 |
